Measurements taken from patent US11510410B2, “Pediculicidal composition” (DR. REDDY'S LABORATORIES, S.A., priority 2013, dated 2022).

Legend:
[1] = tested on: Pediculus humanus humanus eggs; test: In vitro ovicidal efficacy, 0.74% w/w composition versus vehicle (Example 6); details: compared to the vehicle formulation
Protocol: This formulation including 0.5% BHT was also evaluated for its ovicidal activity.

[2] = Safety of single application in subjects (Example 8); format: in vivo, human; details: single application at two dose levels 0.37% w/w and 0.74% w/w
Protocol: (§1) One hundred and forty two (142) pediatric and adult subjects, three (3) years of age or older, with an active head lice infestation were enrolled in the study. This study assessed the efficacy of a single application of 2 different dose levels (0.37% w/w and 0.74% w/w of 5,5′-dimethyl-2,2′-dipyridyl) compared to a vehicle control. The formulations were prepared as described in Table 9. Subjects were treated for 10 minutes with a lotion containing one of two dose levels of 5,5′-dimethyl-2,2′-dipyridyl or the vehicle lotion. After 10 minutes the lotion was rinsed out of the subjects hair with water and towel dried. At day 1, 7 and 14 post treatment the hair was examined for the presence of live lice. If any live lice were detected on any of the three visits the subject was deemed a treatment failure. The primary endpoint to the study was that proportion of subjects who were lice free at day 14.

[3] = tested on: Pediculus humanus capitis eggs; test: Effect of formulated 5,5′-dimethyl-2,2′-dipyridyl on egg hatching (Example 3); details: for Stage of development: eggs with eye development / Stage of development: eggs with no eye development / Stage of development: eggs hatched: 10 eggs
Protocol: Gravid female lice were permitted to lay eggs over a 24 hour period. The eggs were counted, inspected under a light microscope and all eggs that appeared undamaged were allocated to one of two treatment groups. One group of 10 eggs was exposed to 5,5′-dimethyl-2,2′-dipyridyl in a formulation (52-06-01), while the second group of 10 eggs was exposed to the formulation only (vehicle, 52-06-02) Table 2. The two formulations were as follows: […]
Following a 10 minute exposure to either the 52-06-01 or […] formulations the eggs were subsequently washed for 1 minute with water (˜37° C.) before being placed at 31° C. in a humid incubator and monitored over time for signs of development specifically of the eyes and through to subsequent hatching.

[4] = Safety of single application in Phase 3 studies (Example 9); format: in vivo, human; details: single application 0.74% w/w
Protocol: A total of seven hundred and four (704) pediatric and adult subjects, six (6) months of age or older, with an active head lice infestation were enrolled in two separate Phase 3 studies. These studies assessed the efficacy of a single application of 0.74% w/w abametapir compared to a vehicle control (refer Table 9, above). Subjects were treated for 10 minutes with a lotion containing abametapir or the vehicle lotion alone. After 10 minutes the lotion was rinsed out of the subjects hair with water and towel dried. At day 1, 7 and 14 post treatment the hair was examined for the presence of live lice. If any live lice were detected on any of the three visits the subject was deemed a treatment failure. The primary endpoint to the study was that proportion of index subjects (youngest member of the household with at least 3 live lice at the commencement of the study) who were lice free at all follow-up visits through day 14.

[5] = tested on: head lice Pediculus humanus capitis infestation; test: In vivo efficacy in subjects with head lice infestation, two dose levels (Example 8); details: single 10 minute application, human subjects 3 years or older
Protocol: as §1

[6] = tested on: Pediculus humanus capitis eggs; test: Ex vivo ovicidal efficacy, double-blind vehicle-controlled randomized clinical trial (Example 7)
Protocol: In this study the formulation as listed in Table 9 containing 0.74% 5,5′-dimethyl-2,2′-dipyridyl, (abametapir), was evaluated in a double-blind, vehicle-controlled randomized clinical trial. The primary aim of the trial was to evaluate the ovicidal efficacy of a single application of abametapir lotion 0.74% w/w intended for the treatment of head lice. The primary end point was the proportion of hatched eggs pre-treatment relative to proportion of hatched eggs post-treatment for the formulation containing abametapir and vehicle treated eggs following a 14 day incubation.
This ex vivo study involved identifying subjects with an active head lice infestation (active being defined as the presence of at least 3 live lice and at least 10 undamaged eggs). A minimum of 5 undamaged eggs were collected both pre and post treatment and their predicted viability assessed under a dissecting microscope before being incubated in a temperature and humidity controlled incubator (30° C. and 60% RH) for 14 days to provide adequate time for the eggs to hatch. After 14 days eggs were assessed as either hatched, unhatched, or partially hatched.

[7] = Day 1 of observation, formulation 52-06-01 (0.38%), 10 minute exposure
[8] = Day 4, formulation 52-06-01, 10 minute exposure
[9] = Day 5, formulation 52-06-01, 10 minute exposure
[10] = Day 6, formulation 52-06-01, 10 minute exposure
[11] = Day 7, formulation 52-06-01, 10 minute exposure
[12] = Day 12, formulation 52-06-01, 10 minute exposure

Cc1ccc(-c2ccc(C)cn2)nc1 [5,5′-dimethyl-2,2′-dipyridyl]
ovicidal activity (in words) [1]: significant ovicidal activity | safety results [2]: safe and well tolerated | Stage of development: eggs with eye development [3, 7]: 1 eye development | Stage of development: eggs with no eye development [3, 7]: 9 no eye development | Stage of development: eggs hatched [3, 8]: 1 hatched | Stage of development: eggs with eye development [3, 8]: 1 eye development | Stage of development: eggs with no eye development [3, 8]: 8 no eye development | Stage of development: eggs hatched [3, 9]: 1 hatched | Stage of development: eggs with eye development [3, 9]: 1 eye development | Stage of development: eggs with no eye development [3, 9]: 8 no eye development | Stage of development: eggs hatched [3, 10]: 1 hatched | Stage of development: eggs with eye development [3, 10]: 1 eye development | Stage of development: eggs with no eye development [3, 10]: 8 no eye development | Stage of development: eggs hatched [3, 11]: 1 hatched | Stage of development: eggs with eye development [3, 11]: 1 eye development | Stage of development: eggs with no eye development [3, 11]: 8 no eye development | Stage of development: eggs hatched [3, 12]: 1 hatched | Stage of development: eggs with eye development [3, 12]: 1 eye development | Stage of development: eggs with no eye development [3, 12]: 8 no eye development | eggs in the treatment arm failed to hatch ([3]; overall, ten eggs, 0.37% w/w formulation, 10 minute exposure): 90% | safety results [4]: safe and well tolerated | subjects with treatment success (lice free at day 14) ([5]; 0.37% w/w lotion): 67.4% | subjects with treatment success (lice free at day 14) ([5]; 0.74% w/w lotion): 85.7% | Egg hatch Post-treatment ([6]; eggs collected after single application, 14 day incubation, N = 25): 0% | Egg hatch Pre-treatment ([6]; eggs collected pre-treatment (baseline), 14 day incubation, N = 25): 93.3% | Total absolute reduction in hatch rate (CI 95%) ([6]; generalized estimating equation model): 92.9% | The treatment difference in the absolute reduction of hatch rates (abametapir minus Vehicle) ([6]; p < 0.0001): 50.6% | ovicidal efficacy (eggs treated failed to hatch) ([6]; post-treatment, 14 day incubation): 100%
